Values quoted from earlier work as cited in patent US6020121A (priority 1996, dated 2000).

Tested on: production of several toxins
Details: Agr independent; cited from earlier work

CCCCCCCCCCCC(=O)OCC(O)CO (stereo not shown) [GML, Glycerol monolaureate, reference compound]
production of several toxins: lower the production of several toxins in an Agr independent manner
